Target: T1, myeloperoxidase (MPO) (Homo sapiens, UniProt P05164)
T1 sequence (P05164 49-745): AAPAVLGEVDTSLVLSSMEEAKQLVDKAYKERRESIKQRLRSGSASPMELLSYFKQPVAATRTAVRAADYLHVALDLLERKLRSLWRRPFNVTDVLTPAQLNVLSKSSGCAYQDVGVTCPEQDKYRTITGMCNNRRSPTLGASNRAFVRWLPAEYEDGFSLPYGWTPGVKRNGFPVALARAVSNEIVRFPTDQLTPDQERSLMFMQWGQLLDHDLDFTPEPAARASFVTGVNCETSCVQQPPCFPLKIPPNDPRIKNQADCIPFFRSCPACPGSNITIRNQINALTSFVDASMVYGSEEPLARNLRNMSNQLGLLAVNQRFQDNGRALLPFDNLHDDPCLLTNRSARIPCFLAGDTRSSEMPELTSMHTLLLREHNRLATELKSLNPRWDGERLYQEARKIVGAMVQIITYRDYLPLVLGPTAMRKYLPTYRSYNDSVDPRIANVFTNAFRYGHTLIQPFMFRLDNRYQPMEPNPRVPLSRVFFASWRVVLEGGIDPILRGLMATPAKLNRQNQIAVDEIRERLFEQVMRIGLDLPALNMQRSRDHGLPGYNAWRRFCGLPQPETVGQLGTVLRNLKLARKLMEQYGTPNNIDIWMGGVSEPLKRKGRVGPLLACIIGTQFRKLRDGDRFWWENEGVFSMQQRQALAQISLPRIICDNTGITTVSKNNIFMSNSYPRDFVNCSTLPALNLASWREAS
Assay: MPO peroxidation assay (Amplex Red assay)
Type: biochemical
Conditions: MPO peroxidation, potency range class; read-out: Amplex Red IC50
Outline: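 Peroxidase turnover of Amplex Red to fluorescent resorufin (Ex 535/Em 590 nm) was followed for 15 min in 100 mM KPi, pH 7.4, after 10 min room-temperature preincubation of compound with 200 pM enzyme plus 40 nM H2O2. The substrate mix contained 200 μM Amplex Red and 10 mM H2O2. IC50s came from linear-phase rates (180–540 s) fitted with a Hill equation.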

Row | SMILES | IC50 [nM]
1 | NC(=O)CCNC(=O)c1ccc(F)c(COc2cc(N)nc3[nH]nnc23)c1 [Example 170, N-(3-amino-3-oxopropyl)-3-((5-amino-3H-[1,2,3]triazolo[4,5-b]pyridin-7-yloxy)methyl)-4-fluorobenzamide] | 1 to 100
2 | Nc1cc(OCc2cc(C(=O)NCc3ccccc3)ccc2Cl)c2nn[nH]c2n1 [Example 173, 3-((5-amino-3H-[1,2,3]triazolo [4,5-b]pyridin-7-yloxy)methyl)-N-benzyl-4-chlorobenzamide] | 1 to 100
3 | CN(C(=O)c1ccc(Cl)c(COc2cc(N)nc3[nH]nnc23)c1)c1ccccc1 [Example 175, 3-((5-amino-3H-[1,2,3]triazolo [4,5-b]pyridin-7-yloxy)methyl)-4-chloro-N-methyl-N-phenylbenzamide] | 1 to 100
4 | Nc1cc(OCc2cc(C(=O)N3CCC[C@@H]3CO)ccc2Cl)c2nn[nH]c2n1 [Example 178, (R)-(3-((5-amino-3H-[1,2,3]triazolo[4,5-b]pyridin-7-yloxy)methyl)-4-chlorophenyl)(2-(hydroxymethyl)pyrrolidin-1-yl)methanone] | 101 to 999
5 | Nc1cc(OCc2cc(C(=O)N(CCO)Cc3ccccc3)ccc2Cl)c2nn[nH]c2n1 [Example 183, 3-((5-amino-3H-[1,2,3]triazolo [4,5-b]pyridin-7-yloxy)methyl)-N-benzyl-4-chloro-N-(2-hydroxyethyl)benzamide] | 101 to 999
6 | CCN(CCO)C(=O)c1ccc(Cl)c(COc2cc(N)nc3[nH]nnc23)c1 [Example 184, 3-((5-amino-3H-[1,2,3]triazolo [4,5-b]pyridin-7-yloxy)methyl)-4-chloro-N-ethyl-N-(2-hydroxyethyl) benzamide] | 101 to 999
7 | CN(C)C(=O)c1ccc(Cl)c(COc2cc(N)nc3[nH]nnc23)c1 [Example 185, 3-((5-amino-3H-[1,2,3]triazolo [4,5-b]pyridin-7-yloxy)methyl)-4-chloro-N,N-dimethylbenzamide] | 101 to 999
8 | CN(CC(N)=O)C(=O)c1ccc(Cl)c(COc2cc(N)nc3[nH]nnc23)c1 [Example 189, N-(2-amino-2-oxoethyl)-3-((5-amino-3H-[1,2,3]triazolo[4,5-b]pyridin-7-yloxy)methyl)-4-chloro-N-methylbenzamide] | 101 to 999
9 | Nc1cc(OCc2cc(C(=O)NCc3ccc[nH]c3=O)ccc2Cl)c2nn[nH]c2n1 [Example 192, 3-((5-amino-3H-[1,2,3]triazolo [4,5-b]pyridin-7-yloxy)methyl)-4-chloro-N-((2-oxo-1,2-dihydropyridin-3-yl)methyl) benzamide] | 1 to 100
10 | COC(=O)c1ccc(COc2cc(N)nc3[nH]nnc23)c(Cl)c1 [Example 194, Methyl 4-((5-amino-3H-[1,2,3]triazolo[4,5-b]pyridin-7-yloxy)methyl)-3-chlorobenzoate] | 1 to 100
11 | Nc1cc(OCc2ccc(C(=O)NCc3ccccc3)cc2Cl)c2nn[nH]c2n1 [Example 196, 4-((5-amino-3H-[1,2,3]triazolo[4,5-b]pyridin-7-yloxy)methyl)-N-benzyl-3-chlorobenzamide] | 1 to 100
12 | Nc1cc(OCc2ccc(C(=O)NCC3CCCCC3)cc2Cl)c2nn[nH]c2n1 [Example 198, 4-((5-amino-3H-[1,2,3]triazolo[4,5-b]pyridin-7-yloxy)methyl)-3-chloro-N-(cyclohexylmethyl)benzamide] | 101 to 999
13 | Nc1cc(OCc2ccc(C(=O)N3CCC[C@H]3CO)cc2Cl)c2nn[nH]c2n1 [Example 199, (S)-(4-((5-amino-3H-[1,2,3]triazolo [4,5-b]pyridin-7-yloxy)methyl)-3-chlorophenyl)(2-(hydroxymethyl)pyrrolidin-1-yl)methanone] | 101 to 999
14 | CC(NC(=O)c1ccc(COc2cc(N)nc3[nH]nnc23)c(Cl)c1)c1ccccc1 (stereo not shown) [Example 201, 4-((5-amino-3H-[1,2,3]triazolo[4,5-b]pyridin-7-yloxy)methyl)-3-chloro-N-(1-phenylethyl)benzamide] | 1 to 100
15 | CN(C)CCNC(=O)c1ccc(COc2cc(N)nc3[nH]nnc23)c(Cl)c1 [Example 202, 4-((5-amino-3H-[1,2,3]triazolo[4,5-b]pyridin-7-yloxy)methyl)-3-chloro-N-(2-(dimethylamino)ethyl) benzamide] | 1 to 100
16 | CN(C(=O)c1ccc(COc2cc(N)nc3[nH]nnc23)c(Cl)c1)c1ccccc1 [Example 203, 4-((5-amino-3H-[1,2,3]triazolo[4,5-b]pyridin-7-yloxy)methyl)-3-chloro-N-methyl-N-phenylbenzamide] | 1 to 100
17 | CN(Cc1ccccc1)C(=O)c1ccc(COc2cc(N)nc3[nH]nnc23)c(Cl)c1 [Example 204, 4-((5-amino-3H-[1,2,3]triazolo[4,5-b]pyridin-7-yloxy)methyl)-N-benzyl-3-chloro-N-methylbenzamide] | 1 to 100
18 | Nc1cc(OCc2ccc(C(=O)N3CCCCC3c3ccccc3)cc2Cl)c2nn[nH]c2n1 (stereo not shown) [Example 206] | 101 to 999
19 | Cc1cc(CNC(=O)c2ccc(COc3cc(N)nc4[nH]nnc34)c(Cl)c2)n(C)n1 [Example 207, 4-((5-amino-3H-[1,2,3]triazolo[4,5-b]pyridin-7-yloxy)methyl)-3-chloro-N-((1,3-dimethyl-1H-pyrazol-5-yl)methyl)benzamide] | 1 to 100
20 | Nc1cc(OCc2ccc(C(=O)N3CCCC(Oc4ccccc4)C3)cc2Cl)c2nn[nH]c2n1 (stereo not shown) [Example 209] | 1 to 100
21 | Nc1cc(OCc2ccc(C(=O)N3CCC(CO)C3)cc2Cl)c2nn[nH]c2n1 (stereo not shown) [Example 210] | 101 to 999
22 | CC(=O)N[C@H]1CCN(C(=O)c2ccc(COc3cc(N)nc4[nH]nnc34)c(Cl)c2)C1 [Example 212, (S)-N-(1-(4-((5-amino-3H-[1,2,3]triazolo[4,5-b]pyridin-7-yloxy)methyl)-3-chlorobenzoyl)pyrrolidin-3-yl)acetamide] | 101 to 999
23 | Nc1cc(OCc2ccc(C(=O)Nc3ccccc3)cc2Cl)c2nn[nH]c2n1 [Example 213, 4-((5-amino-3H-[1,2,3]triazolo[4,5-b]pyridin-7-yloxy)methyl)-3-chloro-N-phenylbenzamide] | 1 to 100

The remaining lines, values ahead:

Row | IC50 [nM] | SMILES
24 | 1 to 100 | COC(=O)c1ccc(Cl)c(COc2cc(N)nc3[nH]nnc23)c1 [Example 171, Methyl 3-((5-amino-3H-[1,2,3]triazolo[4,5-b]pyridin-7-yloxy)methyl)-4-chlorobenzoate]
25 | 101 to 999 | Nc1cc(OCc2cc(C(=O)N3CCC(O)C3)ccc2Cl)c2nn[nH]c2n1 (stereo not shown) [Example 176, (3-((5-amino-3H-[1,2,3]triazolo [4,5-b]pyridin-7-yloxy)methyl)-4-chlorophenyl)(3-hydroxypyrrolidin-1-yl)methanone]
26 | 101 to 999 | Nc1cc(OCc2cc(C(=O)N3CCC[C@H]3CO)ccc2Cl)c2nn[nH]c2n1 [Example 179, (S)-(3-((5-amino-3H-[1,2,3]triazolo[4,5-b]pyridin-7-yloxy)methyl)-4-chlorophenyl)(2-(hydroxymethyl)pyrrolidin-1-yl)methanone]
27 | 101 to 999 | Nc1cc(OCc2cc(C(=O)N3CCC3)ccc2Cl)c2nn[nH]c2n1 [Example 182, (3-((5-amino-3H-[1,2,3]triazolo [4,5-b]pyridin-7-yloxy)methyl)-4-chlorophenyl)(azetidin-1-yl)methanone]
28 | 101 to 999 | CNC(=O)CNC(=O)c1ccc(Cl)c(COc2cc(N)nc3[nH]nnc23)c1 [Example 187, 3-((5-amino-3H-[1,2,3]triazolo [4,5-b]pyridin-7-yloxy)methyl)-4-chloro-N-(2-(methylamino)-2-oxoethyl)benzamide]
29 | 1 to 100 | Nc1cc(OCc2cc(C(=O)NC3CC3)ccc2Cl)c2nn[nH]c2n1 [Example 188, 3-((5-amino-3H-[1,2,3]triazolo [4,5-b]pyridin-7-yloxy)methyl)-4-chloro-N-cyclopropylbenzamide]
30 | 1 to 100 | Nc1cc(OCc2cc(C(=O)NCC(F)(F)F)ccc2Cl)c2nn[nH]c2n1 [Example 190, 3-((5-amino-3H-[1,2,3]triazolo [4,5-b]pyridin-7-yloxy)methyl)-4-chloro-N-(2,2,2-trifluoroethyl) benzamide]
31 | 1 to 100 | CC(O)CNC(=O)c1ccc(Cl)c(COc2cc(N)nc3[nH]nnc23)c1 (stereo not shown) [Example 191, 3-((5-amino-3H-[1,2,3]triazolo [4,5-b]pyridin-7-yloxy)methyl)-4-chloro-N-(2-hydroxypropyl) benzamide]
32 | 101 to 999 | Nc1cc(OCc2cc(C(=O)NC3CCS(=O)(=O)C3)ccc2Cl)c2nn[nH]c2n1 (stereo not shown) [Example 193, 3-((5-amino-3H-[1,2,3]triazolo [4,5-b]pyridin-7-yloxy)methyl)-4-chloro-N-(1,1-dioxidotetrahydrothien-3-yl)benzamide]
33 | 101 to 999 | Nc1cc(OCc2ccc(C(=O)NC3CC3)cc2Cl)c2nn[nH]c2n1 [Example 197, 4-((5-amino-3H-[1,2,3]triazolo[4,5-b]pyridin-7-yloxy)methyl)-3-chloro-N-cyclopropylbenzamide]
34 | 1 to 100 | Nc1cc(OCc2ccc(C(=O)NC3CCC3)cc2Cl)c2nn[nH]c2n1 [Example 205, 4-((5-amino-3H-[1,2,3]triazolo[4,5-b]pyridin-7-yloxy)methyl)-3-chloro-N-cyclobutylbenzamide]

From patent US10316035B2, “Triazolopyridine inhibitors of myeloperoxidase” (BRISTOL-MYERS SQUIBB COMPANY, priority 2015, dated 2019)
